Converted amounts (≈) assume the structure as drawn. Where two headings read alike, the source gives them in different places.
What was measured:
[1] = test system: Enterococcus avium that does not carry vancomycine resistance genes; assay: Test Example 2: vancomycin MIC changes when D-lactic acid (DL-sodium lactate) is added (checkerboard method); type: cell-based; settings: DL-sodium lactate 0.025-[…]
Van B VRE [2] = assay: as above; type: cell-based, E. faecium, E. faecalis
[3] = test system: Enterococcus faecalis that does not carry vancomycine resistance genes (incl. ATCC29212); assay: as above; type: cell-based; settings: DL-sodium lactate 0.025-[…]
Van A VRE [4] = assay: as above; type: cell-based, E. faecium
[5] = test system: Van C type, Enterococcus gallinarum; assay: as above; type: cell-based
[6] = test system: Van C type, Enterococcus casseliflavus; assay: as above; type: cell-based
[7] = test system: Enterococcus faecium that does not carry vancomycine resistance genes; assay: as above; type: cell-based; settings: DL-sodium lactate 0.025-[…]
[8] = test system: Van C type, Enterococcus casseliflavus; assay: microbe, parasite or virus in culture; settings: read-out: vancomycin MIC, with addition of D-cycloserine, all strains of the group
Van G VRE = settings: cited from earlier work
Van B VRE [9] = assay: microbe, parasite or virus in culture; type: cell-based, E. faecium, E. faecalis; settings: Enterococcus, read-out: vancomycin MIC
Van E VRE = settings: cited from earlier work
Van A VRE [10] = assay: microbe, parasite or virus in culture; type: cell-based, E. faecium; settings: Enterococcus, read-out: vancomycin MIC
[11] = test system: Van C type, Enterococcus gallinarum; assay: microbe, parasite or virus in culture; settings: read-out: vancomycin MIC, with addition of D-cycloserine, all strains of the group
Van D VRE = settings: cited from earlier work
Van C VRE = settings: cited from earlier work
Van B VRE [12] = settings: carries van B gene; cited from earlier work
Van A VRE [13] = settings: carries van A gene; cited from earlier work
[14] = Enterococcus, VRE, read-out: vancomycin MIC

## CC(O)C(=O)[O-].[Na+] (racemic) [DL-sodium lactate]
[1]
  effect of the addition of DL-sodium lactate on the vancomycin MIC: did not change the vancomycin MIC
Van B VRE [2]; for increasing the vancomycin MIC
  optimum concentration of addition of DL-sodium lactate: 0.2 mol/L
Van B VRE [2]; growth worse in line with the added amount
  concentration of DL-sodium lactate at which the organisms tend to grow worse: more than 0.4 mol/l
[3]
  effect of the addition of DL-sodium lactate on the vancomycin MIC: did not change the vancomycin MIC
Van A VRE [4]; DL-sodium lactate 0.025-[…], 5 strains
  effect of the addition of DL-sodium lactate on the vancomycin MIC: increased the vancomycin MIC or maintained the vancomycin MIC as high as more than 512 μg/ml
[5]; DL-sodium lactate 0.025-[…]
  effect of the addition of DL-sodium lactate on the vancomycin MIC: The addition of DL-sodium lactate did not change the vancomycin
[6]; DL-sodium lactate 0.025-[…]
  effect of the addition of DL-sodium lactate on the vancomycin MIC: The addition of DL-sodium lactate did not change the vancomycin
[7]
  effect of the addition of DL-sodium lactate on the vancomycin MIC: did not change the vancomycin MIC

## CN[C@H](CC(C)C)C(=O)N[C@H]1C(=O)N[C@@H](CC(N)=O)C(=O)N[C@H]2C(=O)N[C@H]3C(=O)N[C@H](C(=O)N[C@H](C(=O)O)c4cc(O)cc(O)c4-c4cc3ccc4O)[C@H](O)c3ccc(c(Cl)c3)Oc3cc2cc(c3O[C@@H]2O[C@H](CO)[C@@H](O)[C@H](O)[C@H]2O[C@H]2C[C@](C)(N)[C@H](O)[C@H](C)O2)Oc2ccc(cc2Cl)[C@H]1O [vancomycin]
[8]
  MIC: < 32 µg/mL
Van B VRE [2]; [14]
  MIC: > 32 µg/mL
Van G VRE
  minimum inhibitory concentration (MIC): 12 to 16 µg/mL
Van A VRE [4]; [14]
  MIC: > 32 µg/mL
[5]; Enterococcus gallinarum, GALLINARUM, read-out: vancomycin MIC, with addition of DL-sodium lactate, all strains of the group
  MIC: < 32 µg/mL
Van B VRE [9]
  MIC: > 32 µg/mL
Van E VRE
  minimum inhibitory concentration (MIC): 16 µg/mL (≈ 11 µM)
Van A VRE [10]
  MIC: > 32 µg/mL
[6]; Enterococcus casseliflavus, read-out: vancomycin MIC, with addition of DL-sodium lactate, all strains of the group
  MIC: < 32 µg/mL
[11]
  MIC: < 32 µg/mL
Van D VRE
  minimum inhibitory concentration (MIC): 64 to 1024 µg/mL
Van C VRE
  minimum inhibitory concentration (MIC): 2 to 32 µg/mL

## teicoplanin
Van G VRE; carries van G gene
  minimum inhibitory concentration (MIC): 0.5 µg/mL
Van E VRE; carries van E gene
  minimum inhibitory concentration (MIC): 0.5 µg/mL
Van B VRE [12]
  minimum inhibitory concentration (MIC): 0.5 to 1 µg/mL
Van A VRE [13]
  minimum inhibitory concentration (MIC): 16 to 512 µg/mL
Van D VRE; carries van D gene
  minimum inhibitory concentration (MIC): 4 to 1024 µg/mL
Van C VRE; carries van C gene
  minimum inhibitory concentration (MIC): 0.5 to 1 µg/mL

Source: patent US7364874B2, “Mediucm for detecting Van A and Van B vancomycin-resistant entercocci and method of using the same” (priority 2001, dated 2008)
